Where two headings read alike, the source gives them in different places.
Legend:
U87-MG cells = experiment: CellTiter-Glo cytotoxicity against U87-MG cells; assay type: cell-based; conditions: Homo sapiens, U-87 MG, 144 hours incubation, IC50 ± SD (n = 3)
Experimental: (§1) Apoptosis of glioma cells induced by TMZ, occurs at least 120 hours after treatment.[7] Consequently, cells were incubated for 144 hours with specified TMZ analogues in the in vitro investigations in order to obtain more reliable IC50 values.
(§2) 1321-N1 (human astrocytoma) was maintained in DMEM medium supplemented with 2 mM L-glutamine and 10% FBS. GOS-3, (human brain mixed astro-oligodendroglioma) was maintained in DMEM medium supplemented with 2 mM L-glutamine and 10% […]. U87-MG, (human glioblastoma) and SVGp12 (normal human astroglia) were maintained in EMEM medium supplemented with 2 mM L-glutamine, 1 mM sodium pyruvate and 10% FBS. All cell lines were incubated at 37 °C and 5% CO2 in a humidified incubator. Primary BTNW cultures were maintained in Ham's F10 nutrient mixture, containing 20 mM HEPES, 2 mM glutamine and 10% FBS. Primary cultures were incubated in a humidified incubator at 37 °C.
(§3) Cells were seeded in the appropriate media in each well of a Costar 96-well plate at a density of 5 × 10^2 immortalised cells; 2 × 10^3 (primary cells). The plates were incubated at 37 °C and 5% CO2 in a humidified incubator for 24 hours to allow cells to adhere. Each of the drugs tested were dissolved in DMSO to afford a 200 mM stock solution. The stock solutions were diluted with medium to afford the final working concentrations, ensuring DMSO concentration was no greater than 0.5% (v/v). Drug concentrations were added to the cells and incubated for 144 hours. After incubation, the drug concentrations were removed and replaced with 100 μL of CellTiter-Glo® and 100 μL of media. The luminescence of each well was measured on GENios Pro plate reader. The results for each of the drug concentrations were expressed as a percentage of the control wells. For cell lines, the regression equation for a polynomial line of best fit of order 2 was used to calculate the IC50. In the case of the in vitro model used in the present study, the IC50 was defined as the concentration of drug that results in a 50% reduction in oxyluciferin production. Primary culture cells were incubated with clinically relevant concentrations for 144 hours. Viability was expressed as a percentage of the control wells. Each experiment involving cell lines was carried out in triplicate of triplicates. Experiments using patient derived primary cultures were carried out in triplicate.
(§4) Initial screening of the 25 analogues was completed using the U87-MG cell line. The most promising analogues from the initial screening were taken forward and tested against the 1321-N1, GOS-3 and SVG-p12 cell lines. The results of all 4 cell lines were compiled and the analogues that were deemed to be the most promising drug candidates were tested against primary cultures at clinically relevant concentrations.

1321-N1 = experiment: CellTiter-Glo cytotoxicity against 1321-N1 cells; assay type: cell-based; conditions: Homo sapiens, 144 hours incubation, IC50 ± SD (n = 3)
Experimental: as §1, §2, §3, §4

SVGp12 = experiment: CellTiter-Glo cytotoxicity against normal SVGp12 cell line; assay type: cell-based; conditions: Homo sapiens, 144 hours incubation, IC50 ± SD (n = 3)
Experimental: as §1, §2, §3, §4

GOS-3 = experiment: CellTiter-Glo cytotoxicity against GOS-3 cells; assay type: cell-based; conditions: Homo sapiens; 144 hours incubation, IC50 ± SD (n = 3)
Experimental: as §1, §2, §3, §4

BTNW914 (MGMT−) = experiment: Cell viability of patient derived primary GBM culture BTNW914 (MGMT−); assay type: cell-based, human; conditions: 6 days incubation
Experimental: (§5) Fig. 2 (A) Cell viability of BTNW914 (MGMT−) after treatment by TMZ and phenyl TMZ ester analogues at various clinically relevant concentrations and incubation for 6 days. (B) Cell Viability of BTNW374 (MGMT+) after treatment by TMZ and phenyl TMZ ester analogues at various clinically relevant concentrations. Values are reported as the percentage of viable cells ± SD, n = 3.
(§6) Cytotoxic evaluation of the analogues was completed against 4 cell lines and 2 primary GBM cultures. The human glioma cell lines, GOS-3, U87-MG and 1321-N1 along with the human astroglial cell line, SVGp12, were purchased from The European Collection of Cell Cultures (ECCAC, UK) and Deutsche Sammlung von Mikroorganismen und Zellkulturen (DMSZ, Germany). Patient derived primary GBM cultures, BTNW374 and BTNW914, were obtained from The Brain Tumour North West Tissue Bank in collaboration with The Royal Preston Hospital. Patient data for primary cells was included as part of the ESI. ^†
as §2, §3

BTNW374 (MGMT+) = experiment: Cell viability of patient derived primary GBM culture BTNW374 (MGMT+); assay type: cell-based, human; conditions: human, 144 h, 75 μM
Experimental: as §5, §6, §2, §3

[1] = Solubility in cell culture medium; assay type: physicochemical
Experimental: The maximum concentration that could be achieved in medium for amide analogues 4a and 4c was approximately 200 μM, at which IC50 values could not be generated and were also eliminated from further studies.
as §3

[2] = initial screening, CellTiter-Glo, read-out: IC50 against U87-MG cells
[3] = lead analogues (Table 2), read-out: IC50 U87-MG

With `Cn1nnc2c(C(=O)OCCc3ccccc3)ncn2c1=O` [Analogue 3c, Phenethyl 3-methyl-4-oxo-3,4-dihydroimidazo[5,1-d][1,2,3,5]tetrazine-8-carboxylate] the melting point was 124 °C and the IC50 (U87-MG cells; [2]) was 615 ± 96 µM.
`Cn1nnc2c(C(=O)Oc3ccccc3)ncn2c1=O` [Analogue 3l, Phenyl 3-methyl-4-oxo-3,4-dihydroimidazo[5,1-d][1,2,3,5]tetrazine-8-carboxylate] gave a melting point of 149 °C, an IC50 (U87-MG cells; [2]) of 331 ± 47 µM and an IC50 (U87-MG cells; [3]) of 330 ± 47 µM. It also gave an IC50 (1321-N1) of 511 ± 10 µM, an IC50 (SVGp12) of 238 ± 6 µM and an IC50 (GOS-3) of 691 ± 35 µM. For the same compound, the “reduction in viability against MGMT devoid GBM cells” value (BTNW914 (MGMT−); at 75 μM) was “greater than 50%”.
Work on `Cn1nnc2c(C(=O)Oc3ccc([N+](=O)[O-])cc3)ncn2c1=O` [Analogue 3i, 4-Nitrophenyl 3-methyl-4-oxo-3,4-dihydroimidazo [5,1-d][1,2,3,5] tetrazine-8-carboxylate] yielded a melting point of 190 °C, an IC50 (U87-MG cells; [2]) of 142 ± 3 µM and an IC50 (U87-MG cells; [3]) of 141 ± 3 µM. For the same compound, the “cytotoxicity against MGMT positive patient derived primary culture” value (BTNW374 (MGMT+)) was “generated cytotoxicity at 75 μM”, the IC50 (1321-N1) was 104 ± 4 µM and the IC50 (SVGp12) was 39 ± 2 µM. For the same compound, the IC50 (GOS-3) was 91 ± 1 µM and the IC50 (BTNW914 (MGMT−); Homo sapiens, 144 h, read-out: IC50 against MGMT devoid GBM primary cells) was under 15 µM.
In the case of `COc1ccc(COC(=O)c2ncn3c(=O)n(C)nnc23)cc1` [Analogue 3f, 4-Methoxybenzyl 3-methyl-4-oxo-3,4-dihydroimidazo[5,1-d][1,2,3,5]tetrazine-8-carboxylate], the melting point is reported as 170 °C and the “solubility in cell culture medium” value [1] is reported as “insoluble”.
In the case of `Cn1nnc2c(C(=O)Nc3ccccc3)ncn2c1=O` [Analogue 4c, 3-Methyl-4-oxo-N-phenyl-3,4-dihydroimidazo[5,1-d][1,2,3,5]tetrazine-8-carboxamide], the melting point is reported as 189 °C, the IC50 (U87-MG cells; [2]) is reported as over 200 µM and the “maximum concentration that could be achieved in medium” value [1] is reported as “approximately 200 μM”. The “solubility in cell culture medium” value [1] was “insoluble”.
In the case of `Cn1nnc2c(C(=O)NCc3ccc(Cl)cc3)ncn2c1=O` [Analogue 4k, N-(4-Chlorobenzyl)-3-methyl-4-oxo-3,4-dihydroimidazo[5,1-d][1,2,3,5]tetrazine-8-carboxamide], the melting point is reported as 148 °C, the IC50 (U87-MG cells; [3]) is reported as 138 ± 28 µM and the IC50 (1321-N1) is reported as over 200 µM. For the same compound, the IC50 (SVGp12) was 79 ± 6 µM, the “solubility in cell culture medium” value [1] was “insoluble” and the IC50 (GOS-3) was over 200 µM.
With `COc1ccc(CCOC(=O)c2ncn3c(=O)n(C)nnc23)cc1` [Analogue 3e, 4-Methoxyphenethyl 3-methyl-4-oxo-3,4-dihydroimidazo[5,1-d][1,2,3,5]tetrazine-8-carboxylate] the melting point was 164 °C and the “solubility in cell culture medium” value [1] was “insoluble”.
With `Cn1nnc2c(C(=O)Nc3ccc(Cl)cc3)ncn2c1=O` [Analogue 4e, N-(4-Chlorophenyl)-3-methyl-4-oxo-3,4-dihydroimidazo[5,1-d][1,2,3,5]tetrazine-8-carboxamide] the melting point was 200 °C and the “solubility in cell culture medium” value [1] was “insoluble”.
For `Cn1nnc2c(C(=O)O)ncn2c1=O` [TMZ acid, 3-methyl-4-oxo-3,4-dihydroimidazo[5,1-d][1,2,3,5]tetrazine-8-carboxylic acid], the IC50 (U87-MG cells; [2]) was 662 ± 42 µM, the IC50 (U87-MG cells; [3]) was 662 ± 42 µM and the IC50 (1321-N1) was 596 ± 26 µM. For the same compound, the IC50 (SVGp12) was 316 ± 2 µM and the IC50 (GOS-3) was 504 ± 30 µM.
`Cn1nnc2c(C(=O)NCCc3ccccc3)ncn2c1=O` [Analogue 4b, 3-Methyl-4-oxo-N-phenethyl-3,4-dihydroimidazo[5,1-d] [1,2,3,5]tetrazine-8-carboxamide] gave a melting point of 158 °C and an IC50 (U87-MG cells; [2]) of 548 ± 48 µM.
For `COc1ccc(NC(=O)c2ncn3c(=O)n(C)nnc23)cc1` [Analogue 4d, N-(4-Methoxyphenyl)-3-methyl-4-oxo-3,4-dihydroimidazo[5,1-d][1,2,3,5]tetrazine-8-carboxamide], the melting point was 192 °C and the “solubility in cell culture medium” value [1] was “insoluble”.
For `COc1ccc(CNC(=O)c2ncn3c(=O)n(C)nnc23)cc1` [Analogue 4i, N-(4-Methoxybenzyl)-3-methyl-4-oxo-3,4-dihydroimidazo[5,1-d][1,2,3,5]tetrazine-8-carboxamide], the melting point was 193 °C and the “solubility in cell culture medium” value [1] was “insoluble”.
Compound `Cc1ccc(CNC(=O)c2ncn3c(=O)n(C)nnc23)cc1` [Analogue 4j, 3-Methyl-N-(4-methylbenzyl)-4-oxo-3,4-dihydroimidazo[5,1-d][1,2,3,5]tetrazine-8-carboxamide] has a melting point of 152 °C and an IC50 (U87-MG cells; [2]) of 139 ± 28 µM.
`CCOC(=O)c1ncn2c(=O)n(C)nnc12` [Analogue 3a, Ethyl 3-methyl-4-oxo-3,4-dihydroimidazo[5,1-d][1,2,3,5]tetrazine-8-carboxylate] gave a melting point of 130 °C and an IC50 (U87-MG cells; [2]) of 700 ± 109 µM.
With `CN(C)CCCOC(=O)c1ncn2c(=O)n(C)nnc12` [Analogue 3g, 3-(Dimethylamino)propyl 3-methyl-4-oxo-3,4-dihydroimidazo[5,1-d][1,2,3,5]tetrazine-8-carboxylate] the melting point was 204 °C and the IC50 (U87-MG cells; [2]) was 856 ± 20 µM.
`CCCCCCOC(=O)c1ncn2c(=O)n(C)nnc12` [Analogue 3b, Hexyl 3-methyl-4-oxo-3,4-dihydroimidazo[5,1-d][1,2,3,5]tetrazine-8-carboxylate] showed a melting point of 76 °C, an IC50 (U87-MG cells; [2]) of 409 ± 45 µM and an IC50 (U87-MG cells; [3]) of 409 ± 45 µM. It also gave an IC50 (1321-N1) of 269 ± 20 µM, an IC50 (SVGp12) of 182 ± 11 µM and an IC50 (GOS-3) of 269 ± 6 µM.
With `Cn1nnc2c(C(=O)Nc3ccc(C#N)cc3)ncn2c1=O` [Analogue 4f, N-(4-Cyanophenyl)-3-methyl-4-oxo-3,4-dihydroimidazo[5,1-d][1,2,3,5]tetrazine-8-carboxamide] the melting point was 234 °C and the “solubility in cell culture medium” value [1] was “insoluble”.
For `COc1ccccc1NC(=O)c1ncn2c(=O)n(C)nnc12` [Analogue 4h, N-(2-Methoxyphenyl)-3-methyl-4-oxo-3,4-dihydroimidazo[5,1-d][1,2,3,5]tetrazine-8-carboxamide], the melting point was 193 °C and the “solubility in cell culture medium” value [1] was “insoluble”.
For `CCCCCCNC(=O)c1ncn2c(=O)n(C)nnc12` [Analogue 4a, N-Hexyl-3-methyl-4-oxo-3,4-dihydroimidazo[5,1-d][1,2,3,5]tetrazine-8-carboxamide], the melting point was 138 °C, the IC50 (U87-MG cells; [2]) was over 200 µM and the “maximum concentration that could be achieved in medium” value [1] was “approximately 200 μM”. For the same compound, the “solubility in cell culture medium” value [1] was “insoluble”.
In the case of `Cc1ccc(NC(=O)c2ncn3c(=O)n(C)nnc23)cc1` [Analogue 4g, 3-Methyl-4-oxo-N-(p-tolyl)-3,4-dihydroimidazo[5,1-d][1,2,3,5]tetrazine-8-carboxamide], the melting point is reported as 209 °C and the “solubility in cell culture medium” value [1] is reported as “insoluble”.
In the case of `Cn1nnc2c(C(=O)OCCc3ccc([N+](=O)[O-])cc3)ncn2c1=O` [Analogue 3d, 4-Nitrophenethyl 3-methyl-4-oxo-3,4-dihydroimidazo[5,1-d][1,2,3,5]tetrazine-8-carboxylate], the melting point is reported as 187 °C and the “solubility in cell culture medium” value [1] is reported as “insoluble”.
With `COc1ccccc1OC(=O)c1ncn2c(=O)n(C)nnc12` [Analogue 3m, 2-Methoxyphenyl 3-methyl-4-oxo-3,4-dihydroimidazo[5,1-d][1,2,3,5]tetrazine-8-carboxylate] the melting point was 165 °C and the IC50 (U87-MG cells; [2]) was 576 ± 91 µM.
